Data on one compound can be found in patent US20230128372A1 (EXCALIBUR MEDICINES LIMITED, priority 2020, published 2023).

Each structure is given as a SMILES string.

For one data set, the target named is T1, rat glucokinase (Rattus norvegicus, UniProt P17712).
T1 sequence (P17712 1-465): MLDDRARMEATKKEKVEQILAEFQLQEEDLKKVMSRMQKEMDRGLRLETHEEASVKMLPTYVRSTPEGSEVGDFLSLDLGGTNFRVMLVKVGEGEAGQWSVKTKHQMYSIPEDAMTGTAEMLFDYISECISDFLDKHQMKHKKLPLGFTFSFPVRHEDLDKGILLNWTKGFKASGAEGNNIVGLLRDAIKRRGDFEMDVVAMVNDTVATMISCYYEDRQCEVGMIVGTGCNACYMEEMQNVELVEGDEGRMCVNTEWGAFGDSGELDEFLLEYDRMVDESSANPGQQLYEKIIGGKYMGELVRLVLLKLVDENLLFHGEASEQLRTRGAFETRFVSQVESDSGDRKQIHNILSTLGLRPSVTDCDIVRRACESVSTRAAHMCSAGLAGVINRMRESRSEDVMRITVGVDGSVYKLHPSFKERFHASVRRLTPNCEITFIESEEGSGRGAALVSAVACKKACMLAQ
The conditions noted are these: read-out: EC50 activation of glucokinase; recombinant rat enzyme, in vitro; cited from earlier work.

Data set [1] has as its system Japanese type 2 diabetic subjects. The conditions noted are these: cited from earlier work.
The test system of data set [2] is hospitalised diabetic patients with known or suspected COVID-19. The conditions noted are these: 60 patients, test and control group combined (blinded); 12 deaths expected from Coronad study.
The test system of the next data set is human hepatocytes. The conditions noted are these: cited from earlier work.
A further data set addresses human glucokinase (Homo sapiens, UniProt P35557). The conditions noted are these: read-out: EC50 activation of glucokinase; recombinant human enzyme, in vitro; cited from earlier work.
In the next data set the test system is diabetic mice. The conditions noted are these: dosed acutely and once daily for up to 28 days, rapid onset of action; cited from earlier work.
The next data set concerns rat hepatocytes. The conditions noted are these: cited from earlier work.
The subject of another data set is healthy animals. The conditions noted are these: cited from earlier work.
The subject of data set [3] is healthy, non-diabetic patients. The conditions noted are these: doses of 40 mg or 80 mg; hypoglycaemia defined as 2.7 mmol/l; cited from earlier work.
Data set [4] deals with normo-glycaemic insulin resistant rats. The conditions noted are these: dosed acutely and once daily for up to 28 days, rapid onset of action; cited from earlier work.

By EC50 is commonly meant the midpoint of the concentration-response curve.

human glucokinase, sequence (P35557 whole entry): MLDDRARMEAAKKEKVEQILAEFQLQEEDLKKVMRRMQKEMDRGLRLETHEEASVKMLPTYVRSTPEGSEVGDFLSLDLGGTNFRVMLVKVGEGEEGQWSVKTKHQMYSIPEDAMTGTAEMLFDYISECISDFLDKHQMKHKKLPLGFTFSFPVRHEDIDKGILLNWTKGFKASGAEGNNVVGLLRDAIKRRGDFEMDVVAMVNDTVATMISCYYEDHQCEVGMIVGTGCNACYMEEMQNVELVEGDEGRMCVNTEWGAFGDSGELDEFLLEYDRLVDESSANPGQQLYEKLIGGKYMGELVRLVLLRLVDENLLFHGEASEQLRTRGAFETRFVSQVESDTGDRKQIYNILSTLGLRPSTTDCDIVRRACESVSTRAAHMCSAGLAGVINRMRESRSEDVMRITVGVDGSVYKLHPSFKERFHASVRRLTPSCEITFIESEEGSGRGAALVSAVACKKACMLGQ

Turning to `COC[C@H](C)Oc1cc(Oc2cnc(C(=O)N3CCC3)cn2)cc(C(=O)Nc2cnc(C)cn2)c1` [AZD1656, 3-{[5-(Azetidin-1-ylcarbonyl)pyrazin-2-yl]oxy}-5-{[(1S)-1-methyl-2-(methyloxy)ethyl]oxy}-N-(5-methylpyrazin-2-yl)benzamide], the EC50 at rat glucokinase was 0.072 µM; in the data set with human hepatocytes, 1.39 µM; at human glucokinase, 0.057 µM; in the data set on rat hepatocytes it was 0.47 µM. In addition, the “HbA1c and fasting plasma glucose (FPG) levels” value in data set [1] (BID at high (40-200 mg/day), medium (20-140 mg/day) and low (10-80 mg/day) doses over 4 months) is “found to lower HbA1c and fasting plasma blood (FPG) glucose levels”. The “change in HbA1c or FPG from baseline” value in data set [1] (at 4 months) is “no statistically significant change”. Also, the “time course of HbA1c/FPG effect” value in [1] (between weeks 8 and 16) is reported as “transient trending towards pre-dose levels”. Also, the “deaths among patients who completed the trial protocol” value in data set [2] came out at 5. Also, the plasma glucose levels entry (with diabetic mice; in data set [4]) was “reduces plasma glucose levels in a dose-dependent fashion” in each case. The “changes in the liver, considered secondary to hypoglycaemia” value in the data set with healthy animals (healthy animals, chronic toxicology studies) is given as “loss of hepatocellular glycogen”. Also, the chronic toxicology findings result in the data set with healthy animals (healthy animals, higher doses, up to 12 months) was “severe hypoglycaemia at higher doses and sequalae such as Wallerian type nerve degeneration and skeletal muscle fibre degeneration”. Moreover, in the data set on healthy animals (preclinical studies of up to 12-month duration), the glucose lowering effect entry is listed as “potent glucose lowering effect”. The hypoglycaemia entry in [3] is “not to cause hypoglycaemia”.
